{"source": "patent US20160175221A1", "about": "“COMPOSITION FOR PREVENTING SKIN AGING CONTAINING ALOESIN OR DERIVATIVE THEREOF” (UNIVERA INC., priority 2013, published 2016)", "key": {"[1]": {"system": "type I procollagen peptide (PIP)", "assay": "PIP level in medium by procollagen type I C-peptide EIA kit", "format": "cell-based, human", "conditions": "0.01 μg/ml and 0.1 μg/ml", "experimental": "(§1) The concentrations of MMP-1 and PIP in the medium were determined using commercially available enzyme-linked immunosorbent assay (ELISA) kits (Human Total MMP-1 Kit, R&D Systems, Inc., Minneapolis, Minn., USA and procollagen type I C-peptide enzyme immunoassay (EIA) kit, Takara Inc., Shiga, Japan) according to the manufacturer's instructions. Each sample was analyzed in triplicate."}, "[2]": {"system": "MMP-1", "assay": "MMP-1 level in medium by ELISA (Human Total MMP-1 Kit)", "format": "cell-based", "conditions": "NHDFs after UVB irradiation (144 mJ/cm^2), 72 hours, FIG. 2", "experimental": "as §1"}, "[3]": {"system": "normal human dermal fibroblasts (NHDFs)", "assay": "MTT colorimetric assay, cytotoxicity of treated cells", "conditions": "before and after UVB irradiation, 0.01 and 0.1 μg/ml before, 0.1 and 1 μg/ml after, 72 hours after treatment, FIG. 1"}, "[4]": {"system": "procollagen type I mRNA", "assay": "RT-PCR of procollagen type I mRNA in UVB irradiated fibroblasts", "format": "cell-based, human", "conditions": "NHDFs after UVB irradiation, 0.01 μg/ml, 0.1 μg/ml and 1 μg/ml, 24 hours; ratio to GAPDH; FIG. 4", "experimental": "(§2) After UVB irradiation, separation of RNA from aloesin treated normal human dermal fibroblasts (NHDFs) was performed using TRIZOL reagent (Invitrogen Life Technologies, Carlsbad, […]) according to the manufacturer's instructions. RNA (5 μg) was subjected to reverse transcription using 200 units of reverse transcriptase and 0.5 μg/μl of oligo-(dT) 15 primer (Bioneer Inc., Korea). The reaction was performed at 42° C. for 60 minutes, and then terminated by heating at 94° C. for five minutes. PCR amplification of cDNA template was performed using PCR premix (Bioneer Inc.) and the following primer pairs: MMP-1, forward 5′-ATTCTACTGATATCGGGGCTTTGA-3′, reverse 5′-ATGTCCTTGGGGTATCCGTGTAG-3′; procollagen type I, forward 5′-CTCGAGGTGGACACCACCCT-3′, reverse 5′-CAGCTGGATGGCCACATCGG-3′; and glyceraldehydes-3-phosphate […] (GAPDH), sense 5′-ACCACAGTCCATGCCATCAC-3′, antisense 5′-CCACCACCCTGTTGCTGTAC-3′. […]\n(§3) To investigate mRNA levels of aloesin treated cells (24 hours after treatment), the concentration of MMP-1 and procollagen type I was measured in UVB irradiated normal human dermal fibroblasts. To quantify the data, the ratio of MMP-1/GAPDH and procollagen type I/GAPDH in normal human dermal fibroblasts was randomly set to 1.0, based on band signal intensity."}, "[5]": {"system": "MMP-1 mRNA", "assay": "RT-PCR of MMP-1 mRNA in UVB irradiated fibroblasts", "format": "cell-based, human", "conditions": "NHDFs after UVB irradiation, 0.01 μg/ml, 0.1 μg/ml and 1 μg/ml, 24 hours; ratio to GAPDH; FIG. 4", "experimental": "as §2, §3"}, "[6]": {"conditions": "NHDFs after UVB irradiation, 72 hours, FIG. 3b"}, "[7]": {"conditions": "NHDFs prior to UVB irradiation, FIG. 3a"}}}
{"compound": "COc1cc(C)c2c(=O)cc(C[C@H](C)O)oc2c1[C@@H]1O[C@H](CO)[C@@H](O)[C@H](O)[C@H]1OC(=O)/C=C/c1ccc(O)cc1", "note": "[isoaloeresin D]", "values": [{"measurement": "PIP levels", "setting": "[1]; [6]", "value": "significantly increased PIP levels"}, {"measurement": "PIP levels", "setting": "[1]; [7]", "value": "significantly increased PIP levels"}, {"measurement": "MMP-1 levels", "setting": "[2]; 1 μg/ml", "value": "significantly decreased MMP-1 levels"}]}
{"compound": "CC(=O)Cc1cc(=O)c2c(C)cc(O)c([C@@H]3O[C@H](CO)[C@@H](O)[C@H](O)[C@H]3O)c2o1", "note": "[aloesin]", "values": [{"measurement": "PIP levels", "setting": "[1]; [6]", "value": "significantly increased PIP levels"}, {"measurement": "PIP levels", "setting": "[1]; [7]", "value": "significantly increased PIP levels"}, {"measurement": "cytotoxicity", "setting": "[3]", "value": "decreased cytotoxicity"}, {"measurement": "MMP-1 levels", "setting": "[2]; 0.1 μg/ml", "value": "significantly decreased MMP-1 levels"}, {"measurement": "mRNA expression of procollagen type I", "setting": "[4]", "value": "significantly increased mRNA expression of procollagen type I"}, {"measurement": "mRNA expression of MMP-1", "setting": "[5]", "value": "decreased mRNA expression of MMP-1"}]}
{"compound": "CC(=O)Cc1cc(=O)c2c(C)cc(O)c([C@@H]3O[C@H](CO)[C@@H](O)[C@H](O)[C@H]3OC(=O)/C=C/c3ccc(O)cc3)c2o1", "note": "[aloeresin A]", "values": [{"measurement": "PIP levels", "setting": "[1]; [6]", "value": "significantly increased PIP levels"}, {"measurement": "PIP levels", "setting": "[1]; [7]", "value": "significantly increased PIP levels"}]}
